In publication PMC6915745, “TRIB3 supports breast cancer stemness by suppressing FOXO1 degradation and enhancing SOX2 transcription” (Nature Communications, 2019):
Each block holds one molecule with its values, some of them ahead of it.

How the values were obtained:
MCF7 cells = experiment: TRIB3/AKT/FOXO1/SOX2 axis after IL-6, CoCl2 or high glucose, MCF7 cells (WB); assay type: cell-based, human; details: MCF7 cells, IL-6 12 hr, high glucose 24 hr, WB; for expressions of FOXO1 and SOX2: CoCl2 24 hr
TRIB3 = TRIB3 expression after cytokines or stressors, MCF7 cells (WB); assay type: cell-based, human; details: cytokines 8 hr, high glucose 24 hr
Description: Cycloheximide (CHX; Sigma Aldrich, R750107) was used as a protein synthesis inhibitor to assess the stability of the existing proteins. To assess protein stability, cells were treated with 20 μM CHX and the proteasome inhibitor MG132 (Sigma Aldrich, R750107) at 10 μM or the autophagy inhibitor BAF (Sigma Aldrich, B1793) at 200 nM for the indicated times. Protein expression was assessed via immunoblot analysis with cell lysates (20–60 μg) prepared in RIPA lysis buffer containing protease inhibitors (Roche) using anti-SOX2 (3529), anti-NANOG (4903), anti-OCT4 (2750), anti-KLF4 (4038), anti-c-Myc (13987), anti-FOXO1 (2880), anti-p-FOXO1 (9461), anti-AKT (4685), anti-p-AKT (4060), anti-β-ACTIN (4970), anti-Ubiquitin (3936), or anti-LaminA/C (4777) antibodies from CST; anti-TRIB3 antibody (ab75846) from Abcam; and anti-Trib3 antibody (PA5-15480) from Thermo Fisher Scientific[59]. All antibodies were used at 1:1000 dilution, with the exception of anti-β-Actin antibodies, which were used at 1:2000 dilution. The protein concentrations were determined by BCA Protein Assay Kits (Pierce). Proteins were separated by SDS-polyacrylamide gel electrophoresis (PAGE) and transferred to polyvinylidene difluoride membrane. […]
(f, g) The expression of
TRIB3 in MCF7 cells (top) or MDA-MB-231 cells (bottom) treated with various concentrations of IL6 for
8 hr (f) or 10 ng/ml IL-6 for different amounts of time (g) was detected by WB. (h) Silencing TRIB3
decreased the tumor sphere formation ability of MCF7 cells with or without IL-6 stimulation. […]
Data are shown as the mean ± SEM; P>0.05 was considered not significant (N.S.); *P<0.05, **P<0.01
and ***P<0.001, compared with the con group in panels d-f. Source data are provided as a Source Data

TRIB3-GST protein = target: T1, TRIB3-GST protein (UniProt Q96RU7 1-358); experiment: SPR
T1 chain: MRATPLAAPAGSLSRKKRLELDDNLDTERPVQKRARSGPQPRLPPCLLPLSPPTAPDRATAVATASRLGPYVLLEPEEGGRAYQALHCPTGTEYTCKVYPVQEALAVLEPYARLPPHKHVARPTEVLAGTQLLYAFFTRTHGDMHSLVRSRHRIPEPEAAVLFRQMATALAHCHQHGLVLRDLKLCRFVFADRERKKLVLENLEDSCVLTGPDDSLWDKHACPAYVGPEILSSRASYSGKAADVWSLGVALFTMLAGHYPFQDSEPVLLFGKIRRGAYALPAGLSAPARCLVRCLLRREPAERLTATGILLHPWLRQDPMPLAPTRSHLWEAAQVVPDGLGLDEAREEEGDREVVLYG

Molecule: OC[C@H]1OC(O)[C@H](O)[C@@H](O)[C@@H]1O (stereo partly shown) [high glucose, glucose]
expressions of FOXO1 and SOX2 (MCF7 cells): enhanced expressions of FOXO1 and SOX2
expressions of FOXO1 and SOX2 (MCF7 cells; listed as high-glucose): enhance
activity of FOXO1 S256 (MCF7 cells): reduced the activity of FOXO1^S256
TRIB3 expression (TRIB3): enhanced TRIB3 expression in MCF7 cells

Molecule: IL-1β: cytokine
TRIB3 expression (TRIB3): enhanced TRIB3 expression in MCF7 cells

Molecule: transforming growth factor-β
TRIB3 expression (TRIB3): enhanced TRIB3 expression in MCF7 cells

Molecule: tumor necrosis factor-α
TRIB3 expression (TRIB3): enhanced TRIB3 expression in MCF7 cells

Kd (TRIB3-GST protein): 300 nM
B1: peptide Ae (peptide)
chain: VAHTLTENRVLQN

Kd (TRIB3-GST protein): 170 nM
B2: M3 (peptide)
chain: EVAATLTENRVLQN

Kd (TRIB3-GST protein): 750 nM
B3: M10 (peptide)
chain: EVAHTLTENRALQN
